# From US7737251B2, “Long lasting glucagon-like peptide 2 (GLP-2) for the treatment of gastrointestinal diseases and disorders” (ConjuChem Biotechnologies Inc., priority 2001, dated 2010)
# Ends that are not written are not given here. * marks the point of attachment. Propanoyl(3-maleimido) = O=C1C=CC(=O)N1CCC(=O)*
# Tests used:
# Format in all cases: in vivo
# normal mice = assay: Intestinotrophic activity in normal mice model (small intestine weight); settings: 5 μg/dose sc twice daily for 10 days, male CD-1 mice; for small intestine weight: vs saline control
# Procedure: The intestinotrophic activity of the compounds of Examples 1-8 has been evaluated in a normal mice model. Five-week-old male CD-1 mice (20-25 g) were treated twice daily for 10 consecutive days with 5 μg/dose of each compound dissolved in 0.9% NaCl aqueous solution. The compounds were administered via subcutaneous injections in the dorsal-lateral area of the lumbar region. Control animals received 0.25 ml/dose of 0.9% NaCl.
# On day 11, mice were fasted for 4 hours and anesthetized with CO2 Small intestines were removed, cleaned and weighed.
# CD-1 mice = assay: Dose-response with selected Gly2-GLP-2 analogues (small and large intestine weight); settings: 5, 25 or 50 μg/dose sc twice daily for 10 days, female CD-1 mice
# Procedure: Six-week-old female CD-1 mice (20-25 g) were treated twice daily for 10 consecutive days with 5, 25 or 50 μg/dose of the compounds of Examples 5, 7 and 8. The compounds were dissolved in 0.083M sodium phosphate buffer, pH 6.8 and administered via subcutaneous injections in the dorsal-lateral area of the lumbar region. Control animals received 0.25 ml/dose of sodium phosphate buffer.
# On day 11, fed mice were anesthetized with Halothane™ and small intestine, large intestine and stomach were collected from each mouse after laparatomy. The tissues were then cleaned and weighed.
# [1] = Pharmacokinetic profiles in rats (plasma radioimmunoassay); settings: male, rat, single 500 nmol/kg, Sprague-Dawley rats; for half-life: harmonic mean; for Vd: read-out: Vss; for Tmax: expressed as media; for bioavailability: read-out: F (absolute bioavailability)
# Procedure: The pharmacokinetic profiles of the compounds of Examples 5 and 8 were studied in normal rats following a single intravenous or subcutaneous injection. Plasma concentrations were determined by radioimmunoassay with a commercial antibody anti-human GLP-2.
# Test articles were dissolved in 0.083M sodium phosphate buffer, pH 6.8 and administered to eight to eleven-week-old male Sprague-Dawley rats by a single intravenous or subcutaneous injection at a dose level of 500 nmol/kg. Serial blood samples (I50-200 μl) were collected into tubes containing EDTA and DPP-IV inhibitor at the following time-points: pre-dose, 5 and 30 min., and 1, 2, 4, 8, 24, 48, 72 and 96 hours post-test agent administration. Whole blood was centrifuged and subsequent plasma samples were recovered and stored at −80° C. until analysis.
# The plasma concentrations of the compounds of Examples 5 and 8 were determined by radioimmunoassay using a rabbit polyclonal antibody anti-human GLP-2 (Peninsula Laboratories, RGG7167) and iodinated human GLP-2 as tracer.
# Descriptive pharmacokinetic parameters were determined by standard model-independent methods (Gibaldi and Perrier, 1982) based on the analysis of plasma concentration-time data. Pharmacokinetic analyses were performed using macros written for Microsoft Excel 97. The following parameters were calculated: • Cmax is the maximum plasma concentration; • Tmax is the time when Cmax is observed; • T1/2 is the terminal half-life; • AUC(0-inf) is the area under the plasma concentration-time curve from time zero to time infinity; • F is the absolute bioavailability, • CL is the systemic clearance; • MRT is mean residence time; and • Vss is the steady-state volume of distribution.
# rat albumin = target: T1, rat albumin (Rattus norvegicus, UniProt P02770); assay: Immunoblotting of rat plasma for conjugation to plasma proteins
# T1 construct: from tissue; host or cells: rat plasma (Sprague-Dawley rats, in vivo conjugation after iv/sc dosing)
# Procedure: Plasma samples obtained from the rat pharmacokinetic study were analyzed by immunoblotting. Plasma proteins were separated under non-reducing conditions using sodium-dodecyl-sulfate polyacrylamide gel electrophoresis (SDS-PAGE) according to Laemmli (1970). Plasma samples were first diluted 1:10 with distilled water and 20 μl was mixed with 10 μl of 3× Laemmli buffer (30 mM TrisCl, 3 mM EDTA, 15% SDS, pH 6.8) and 2 μl of bromophenol blue solution (0.1% bromophenol blue, 50% glycerol). Mixtures were placed in a boiling water bath for 3 min and loaded on gel. Proteins were first concentrated in a 3% stacking gel and then migrated through 8% separating gel using a mini-gel system with 10-well combs (1.5×4.8 mm). Electrophoresis was run under constant current at 15 mA/gel to concentrate proteins in stacking gel and at 20 mA/gel in separating gel for approximately 1.5 h.
# Proteins were subsequently transferred onto a nitrocellulose membrane using a semi-dry transfer apparatus, for 1 hour at 100 mA/gel. Transfer efficacy was checked by reversible staining of the membrane with 1% red Ponceau™ solution.
# Membranes were saturated overnight at 4° C. with Tris Buffered Saline (TBS) containing 5% low fat milk. […]
# T1 sequence (P02770 25-608): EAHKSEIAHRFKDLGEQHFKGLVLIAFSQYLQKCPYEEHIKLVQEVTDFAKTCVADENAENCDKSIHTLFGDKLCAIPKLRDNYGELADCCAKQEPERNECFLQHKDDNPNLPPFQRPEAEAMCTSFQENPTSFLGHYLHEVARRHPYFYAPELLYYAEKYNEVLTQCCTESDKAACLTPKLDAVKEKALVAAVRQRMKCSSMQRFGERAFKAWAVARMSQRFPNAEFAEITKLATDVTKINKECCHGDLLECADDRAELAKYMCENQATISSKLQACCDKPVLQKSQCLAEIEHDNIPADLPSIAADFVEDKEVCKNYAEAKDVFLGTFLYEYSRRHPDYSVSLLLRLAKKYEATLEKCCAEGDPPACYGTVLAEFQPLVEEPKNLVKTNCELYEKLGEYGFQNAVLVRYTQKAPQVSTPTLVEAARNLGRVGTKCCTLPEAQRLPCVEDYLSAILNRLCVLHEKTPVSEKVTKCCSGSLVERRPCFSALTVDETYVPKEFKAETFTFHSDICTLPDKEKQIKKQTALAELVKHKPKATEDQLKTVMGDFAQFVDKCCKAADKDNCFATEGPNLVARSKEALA
Compound,small intestine weight (normal mice),intestinotrophic effects compared to the native GLP-2 peptides of Examples 1 and 3 (normal mice),"dose-response, large intestine weight (CD-1 mice)","dose-response, small intestine weight (CD-1 mice)",AUC(0-inf) ([1]; IV) [µM·h],Cmax ([1]; IV) [nM],MRT ([1]; IV) [h],clearance ([1]; IV) [mL/min/kg],half-life ([1]; IV) [h],Vd ([1]; IV) [L/kg],AUC(0-inf) ([1]; SC) [µM·h],Cmax ([1]; SC) [nM],Tmax ([1]; SC) [h],half-life ([1]; SC) [h],bioavailability ([1]; SC) [%],"conjugation to rat albumin (rat albumin; post-iv administration, anti-GLP-2 immunoblot)","signal on albumin (rat albumin; post-sc administration, anti-GLP-2 immunoblot (not shown))"
His-Ala-Asp-Gly-Ser-Phe-Ser-Asp-Glu-Met-Asn-Thr-Ile-Leu-Asp-Asn-Leu-Ala-Ala-Arg-Asp-Phe -Ile-Asn-Trp-Leu-Ile-Gln-Thr-Lys-Ile-Thr-Asp-Lys(MPA)-CONH2 (HADGSFSDEMNTILDNLAARDFINWLIQTKITDK; MPA; C-terminal amide; analog of GLP-2; VARIANT (34)...(34): MPA attached to the Lys residue; AMIDATION (34)...(34)) [Example 3],Significant increases,,,,,,,,,,,,,,,,
CC[C@H](C)[C@H](NC(=O)[C@H](Cc1ccccc1)NC(=O)[C@H](CC(=O)O)NC(=O)[C@H](CCCNC(=N)N)NC(=O)[C@H](C)NC(=O)[C@H](C)NC(=O)[C@H](CC(C)C)NC(=O)[C@H](CC(N)=O)NC(=O)[C@H](CC(=O)O)NC(=O)[C@H](CC(C)C)NC(=O)[C@@H](NC(=O)[C@@H](NC(=O)[C@H](CC(N)=O)NC(=O)[C@H](CCSC)NC(=O)[C@H](CCC(=O)O)NC(=O)[C@H](CC(=O)O)NC(=O)[C@H](CO)NC(=O)[C@H](Cc1ccccc1)NC(=O)[C@H](CO)NC(=O)CNC(=O)[C@H](CC(=O)O)NC(=O)CNC(=O)[C@@H](N)Cc1c[nH]cn1)[C@@H](C)O)[C@@H](C)CC)C(=O)N[C@@H](CC(N)=O)C(=O)N[C@@H](Cc1c[nH]c2ccccc12)C(=O)N[C@@H](CC(C)C)C(=O)N[C@H](C(=O)N[C@@H](CCC(N)=O)C(=O)N[C@H](C(=O)N[C@@H](CCCCN)C(=O)N[C@H](C(=O)N[C@H](C(=O)N[C@@H](CC(=O)O)C(=O)N[C@@H](CCCCNC(=O)CCN1C(=O)C=CC1=O)C(N)=O)[C@@H](C)O)[C@@H](C)CC)[C@@H](C)O)[C@@H](C)CC [Example 8],Significant increases,more pronounced intestinotrophic effects,possible dose-response,possible dose-response,89.4,10100,16.9,0.0942,16.2,0.0953,13.5,651,0.5,23.8,15.2,conjugates efficiently to rat albumin,weak signal
His-Gly-Asp-Gly-Ser-Phe-Ser-Asp-Glu-Met-Asn-Thr-Ile-Leu-Asp-Lys(MPA)-Leu-Ala-Ala-Arg -Asp-Phe-Ile-Asn-Trp-Leu-Ile-Gln-Thr-Lys-Ile-Thr-Asp-CONH2 (HGDGSFSDEMNTILDK(Propanoyl(3-maleimido))LAARDFINWLIQTKITD-NH2; N-terminus assumed; SMILES CC[C@H](C)[C@H](NC(=O)[C@H](Cc1ccccc1)NC(=O)[C@H](CC(=O)O)NC(=O)[C@H](CCCNC(=N)N)NC(=O)[C@H](C)NC(=O)[C@H](C)NC(=O)[C@H](CC(C)C)NC(=O)[C@H](CCCCNC(=O)CCN1C(=O)C=CC1=O)NC(=O)[C@H](CC(=O)O)NC(=O)[C@H](CC(C)C)NC(=O)[C@@H](NC(=O)[C@@H](NC(=O)[C@H](CC(N)=O)NC(=O)[C@H](CCSC)NC(=O)[C@H](CCC(=O)O)NC(=O)[C@H](CC(=O)O)NC(=O)[C@H](CO)NC(=O)[C@H](Cc1ccccc1)NC(=O)[C@H](CO)NC(=O)CNC(=O)[C@H](CC(=O)O)NC(=O)CNC(=O)[C@@H](N)Cc1c[nH]cn1)[C@@H](C)O)[C@@H](C)CC)C(=O)N[C@@H](CC(N)=O)C(=O)N[C@@H](Cc1c[nH]c2ccccc12)C(=O)N[C@@H](CC(C)C)C(=O)N[C@H](C(=O)N[C@@H](CCC(N)=O)C(=O)N[C@H](C(=O)N[C@@H](CCCCN)C(=O)N[C@H](C(=O)N[C@H](C(=O)N[C@@H](CC(=O)O)C(N)=O)[C@@H](C)O)[C@@H](C)CC)[C@@H](C)O)[C@@H](C)CC) [Example 7],Significant increases,more pronounced intestinotrophic effects,no dose-response,No dose-response,,,,,,,,,,,,,
His-Ala-Asp-Gly-Ser-Phe-Ser-Asp-Glu-Met-Asn-Thr-Ile-Leu-Asp-Asn-Leu-Ala-Ala-Arg-Asp-Phe -Ile-Asn-Trp-Leu-Ile-Gln-Thr-Lys-Ile-Thr-Asp-CONH2 (HADGSFSDEMNTILDNLAARDFINWLIQTKITD-NH2) [Example 1],Significant increases,,,,,,,,,,,,,,,,
CC[C@H](C)[C@H](NC(=O)[C@H](Cc1ccccc1)NC(=O)[C@H](CC(=O)O)NC(=O)[C@H](CCCNC(=N)N)NC(=O)[C@H](C)NC(=O)[C@H](C)NC(=O)[C@H](CC(C)C)NC(=O)[C@H](CC(N)=O)NC(=O)[C@H](CC(=O)O)NC(=O)[C@H](CC(C)C)NC(=O)[C@@H](NC(=O)[C@@H](NC(=O)[C@H](CC(N)=O)NC(=O)[C@H](CCSC)NC(=O)[C@H](CCC(=O)O)NC(=O)[C@H](CC(=O)O)NC(=O)[C@H](CO)NC(=O)[C@H](Cc1ccccc1)NC(=O)[C@H](CO)NC(=O)CNC(=O)[C@H](CC(=O)O)NC(=O)CNC(=O)[C@@H](N)Cc1c[nH]cn1)[C@@H](C)O)[C@@H](C)CC)C(=O)N[C@@H](CC(N)=O)C(=O)N[C@@H](Cc1c[nH]c2ccccc12)C(=O)N[C@@H](CC(C)C)C(=O)N[C@H](C(=O)N[C@@H](CCC(N)=O)C(=O)N[C@H](C(=O)N[C@@H](CCCCN)C(=O)N[C@H](C(=O)N[C@H](C(=O)N[C@@H](CC(=O)O)C(N)=O)[C@@H](C)O)[C@@H](C)CC)[C@@H](C)O)[C@@H](C)CC [Example 5],Significant increases,more pronounced intestinotrophic effects,no dose-response,No dose-response,0.626,1560,0.3,13.9,1.5,0.25,0.205,159,0.5,0.9,32.8,,
